{"source": "patent US4530998A", "about": "“2'-Deoxyoxanosine” (Zaidan Hojin Biseibutsu Kagaku KenkyuKai, priority 1983, dated 1985)", "key": {"[1]": {"test_system": "Bacillus subtilis NRRLB-558", "experiment": "Antibacterial spectrum (MIC) on 0.5% peptone agar", "assay_type": "cell-based", "settings": "NRRLB558", "text": "(§1) Calcd.: C:44.91, H:4.47, N:20.75, Found: C:44.78, H:4.51, N:20.89, Molecular formula: C10 H12 N4 O5 Molecular weight: 268. 2'-Deoxyoxanosine in accordance with the present invention had the following antibacterial spectrum on 0.5% peptone agar.\n(§2) Antibacterial spectrum of 2'-deoxyoxanosine"}, "Bacillus subtilis PCI219": {"test_system": "Bacillus subtilis PCI219", "experiment": "Antibacterial spectrum (MIC) on 0.5% peptone agar", "assay_type": "cell-based", "text": "as §1, §2"}, "Candida albicans 3147": {"test_system": "Candida albicans 3147", "experiment": "Antibacterial spectrum (MIC) on 0.5% peptone agar", "assay_type": "cell-based", "text": "as §1, §2"}, "[2]": {"test_system": "Corynebacterium bovis 1810", "experiment": "Antibacterial spectrum (MIC) on 0.5% peptone agar", "assay_type": "cell-based", "text": "as §1, §2"}, "Escherichia coli K-12": {"test_system": "Escherichia coli K-12", "experiment": "Antibacterial spectrum (MIC) on 0.5% peptone agar", "assay_type": "cell-based", "settings": "K12", "text": "as §1, §2"}, "Escherichia coli ML1628": {"test_system": "Escherichia coli ML1628", "experiment": "Antibacterial spectrum (MIC) on 0.5% peptone agar", "assay_type": "cell-based", "settings": "Escherichia coli ML1628 (multiple resistant strain)", "text": "as §1, §2"}, "Escherichia coli NIHJ": {"test_system": "Escherichia coli NIHJ", "experiment": "Antibacterial spectrum (MIC) on 0.5% peptone agar", "assay_type": "cell-based", "text": "as §1, §2"}, "[3]": {"test_system": "Klebsiella pneumoniae PCI602", "experiment": "Antibacterial spectrum (MIC) on 0.5% peptone agar", "assay_type": "cell-based", "text": "as §1, §2"}, "Microcuccus flavus FDA16": {"test_system": "Microcuccus flavus FDA16", "experiment": "Antibacterial spectrum (MIC) on 0.5% peptone agar", "assay_type": "cell-based", "text": "as §1, §2"}, "Mycobacterium 607": {"test_system": "Mycobacterium 607", "experiment": "Antibacterial spectrum (MIC) on 0.5% peptone agar", "assay_type": "cell-based", "text": "as §1, §2"}, "[4]": {"test_system": "Proteus mirabilis IFM OM-9", "experiment": "Antibacterial spectrum (MIC) on 0.5% peptone agar", "assay_type": "cell-based", "settings": "IFMOM9", "text": "as §1, §2"}, "Proteus rettgeri GN311": {"test_system": "Proteus rettgeri GN311", "experiment": "Antibacterial spectrum (MIC) on 0.5% peptone agar", "assay_type": "cell-based", "settings": "Providencia rettgeri", "text": "as §1, §2"}, "Proteus rettgeri GN466": {"test_system": "Proteus rettgeri GN466", "experiment": "Antibacterial spectrum (MIC) on 0.5% peptone agar", "assay_type": "cell-based", "settings": "Providencia rettgeri", "text": "as §1, §2"}, "Proteus vulgaris OX19": {"test_system": "Proteus vulgaris OX19", "experiment": "Antibacterial spectrum (MIC) on 0.5% peptone agar", "assay_type": "cell-based", "text": "as §1, §2"}, "[5]": {"test_system": "Pseudomonas aeruginosa A3", "experiment": "Antibacterial spectrum (MIC) on 0.5% peptone agar", "assay_type": "cell-based", "text": "as §1, §2"}, "[6]": {"test_system": "Salmonella enteritidis 1891", "experiment": "Antibacterial spectrum (MIC) on 0.5% peptone agar", "assay_type": "cell-based", "settings": "Salmonella enterica", "text": "as §1, §2"}, "Salmonella typhi T-63": {"test_system": "Salmonella typhi T-63", "experiment": "Antibacterial spectrum (MIC) on 0.5% peptone agar", "assay_type": "cell-based", "settings": "Salmonella enterica", "text": "as §1, §2"}, "Sarcina luteus PCI1001": {"test_system": "Sarcina luteus PCI1001", "experiment": "Antibacterial spectrum (MIC) on 0.5% peptone agar", "assay_type": "cell-based", "text": "as §1, §2"}, "Serratia marcescens": {"test_system": "Serratia marcescens", "experiment": "Antibacterial spectrum (MIC) on 0.5% peptone agar", "assay_type": "cell-based", "text": "as §1, §2"}, "[7]": {"test_system": "Shigella dysenteriae JS11910", "experiment": "Antibacterial spectrum (MIC) on 0.5% peptone agar", "assay_type": "cell-based", "text": "as §1, §2"}, "[8]": {"test_system": "Shigella flexneri 4bJS11811", "experiment": "Antibacterial spectrum (MIC) on 0.5% peptone agar", "assay_type": "cell-based", "text": "as §1, §2"}, "Shigella sonnei JS11746": {"test_system": "Shigella sonnei JS11746", "experiment": "Antibacterial spectrum (MIC) on 0.5% peptone agar", "assay_type": "cell-based", "text": "as §1, §2"}, "[9]": {"test_system": "Staphylococcus aureus FDA209P", "experiment": "Antibacterial spectrum (MIC) on 0.5% peptone agar", "assay_type": "cell-based", "text": "as §1, §2"}, "[10]": {"test_system": "Staphylococcus aureus Simth", "experiment": "Antibacterial spectrum (MIC) on 0.5% peptone agar", "assay_type": "cell-based", "text": "as §1, §2"}, "leukemia L-1210 cells": {"test_system": "leukemia L-1210 cells", "experiment": "Cytotoxicity, growth inhibition of leukemia L-1210 cells", "assay_type": "cell-based"}, "[11]": {"experiment": "Acute toxicity (LD50) in mice", "assay_type": "in vivo", "settings": "mouse, in vivo, iv"}, "mice": {"test_system": "mice", "experiment": "Acute toxicity (LD50) in mice", "assay_type": "in vivo", "settings": "i.v., in words"}, "gram-negative bacteria": {"test_system": "gram-negative bacteria", "experiment": "Antibacterial (growth-inhibitory) activity, gram-negative bacteria", "assay_type": "cell-based", "settings": "in words", "text": "as §1"}, "gram-positive bacteria": {"test_system": "gram-positive bacteria", "experiment": "Antibacterial (growth-inhibitory) activity, gram-positive bacteria", "assay_type": "cell-based", "settings": "in words", "text": "as §1"}, "[12]": {"experiment": "Stability under basic conditions", "assay_type": "physicochemical", "settings": "in words"}}}
{"smiles": "Nc1nc2c(ncn2[C@H]2C[C@H](O)[C@@H](CO)O2)c(=O)o1", "note": "[2'-deoxyoxanosine]", "values": [{"measurement": "MIC", "setting": "[1]", "value": "> 100", "unit": "µg/mL"}, {"measurement": "MIC", "setting": "Bacillus subtilis PCI219", "value": "> 100", "unit": "µg/mL"}, {"measurement": "MIC", "setting": "Candida albicans 3147", "value": "> 100", "unit": "µg/mL"}, {"measurement": "MIC", "setting": "[2]", "value": "> 100", "unit": "µg/mL"}, {"measurement": "MIC", "setting": "Escherichia coli K-12", "value": 0.78, "unit": "µg/mL"}, {"measurement": "MIC", "setting": "Escherichia coli ML1628", "value": 3.12, "unit": "µg/mL"}, {"measurement": "MIC", "setting": "Escherichia coli NIHJ", "value": 12.5, "unit": "µg/mL"}, {"measurement": "MIC", "setting": "[3]", "value": "> 100", "unit": "µg/mL"}, {"measurement": "MIC", "setting": "Microcuccus flavus FDA16", "value": "> 100", "unit": "µg/mL"}, {"measurement": "MIC", "setting": "Mycobacterium 607", "value": "> 100", "unit": "µg/mL"}, {"measurement": "MIC", "setting": "[4]", "value": 6.25, "unit": "µg/mL"}, {"measurement": "MIC", "setting": "Proteus rettgeri GN311", "value": 12.5, "unit": "µg/mL"}, {"measurement": "MIC", "setting": "Proteus rettgeri GN466", "value": 25, "unit": "µg/mL"}, {"measurement": "MIC", "setting": "Proteus vulgaris OX19", "value": "< 0.2", "unit": "µg/mL"}, {"measurement": "MIC", "setting": "[5]", "value": "> 100", "unit": "µg/mL"}, {"measurement": "MIC", "setting": "[6]", "value": "> 100", "unit": "µg/mL"}, {"measurement": "MIC", "setting": "Salmonella typhi T-63", "value": "> 100", "unit": "µg/mL"}, {"measurement": "MIC", "setting": "Sarcina luteus PCI1001", "value": "> 100", "unit": "µg/mL"}, {"measurement": "MIC", "setting": "Serratia marcescens", "value": "> 100", "unit": "µg/mL"}, {"measurement": "MIC", "setting": "[7]", "value": 1.56, "unit": "µg/mL"}, {"measurement": "MIC", "setting": "[8]", "value": 1.56, "unit": "µg/mL"}, {"measurement": "MIC", "setting": "Shigella sonnei JS11746", "value": 0.78, "unit": "µg/mL"}, {"measurement": "MIC", "setting": "[9]", "value": "> 100", "unit": "µg/mL"}, {"measurement": "MIC", "setting": "[10]", "value": "> 100", "unit": "µg/mL"}, {"measurement": "IC50", "setting": "leukemia L-1210 cells; Mus musculus, L1210, read-out: IC50, the concentration inhibiting growth in 50% of leukemia L-1210 cells", "value": 0.15, "unit": "µg/mL"}, {"measurement": "inhibition of growth of leukemia L-1210 cells", "setting": "leukemia L-1210 cells; in words", "value": "exhibited the action to inhibit the growth of leukemia L-1210 cells"}, {"measurement": "LD50", "setting": "[11]", "value": 200, "unit": "mg/kg"}, {"measurement": "acute toxicity compared with known antibiotics similar in structure to nucleic acids", "setting": "mice", "value": "lower toxicity than that of various known antibiotics similar in structure to nucleic acids"}, {"measurement": "antibacterial / growth-inhibitory activity", "setting": "gram-negative bacteria", "value": "relatively high growth-inhibitory activity"}, {"measurement": "antibacterial / growth-inhibitory activity", "setting": "gram-negative bacteria; listed as 2'-Deoxyoxanosine", "value": "excellent antibacterial activity against gram-negative bacteria"}, {"measurement": "growth-inhibitory activity", "setting": "gram-positive bacteria", "value": "did not show this activity against gram-positive bacteria"}, {"measurement": "stability", "setting": "[12]", "value": "relatively unstable under basic conditions"}]}
